Experiment [1] deals with T1, recombinant human cathepsin K (Homo sapiens, UniProt P43235).
T1 sequence (P43235 115-329): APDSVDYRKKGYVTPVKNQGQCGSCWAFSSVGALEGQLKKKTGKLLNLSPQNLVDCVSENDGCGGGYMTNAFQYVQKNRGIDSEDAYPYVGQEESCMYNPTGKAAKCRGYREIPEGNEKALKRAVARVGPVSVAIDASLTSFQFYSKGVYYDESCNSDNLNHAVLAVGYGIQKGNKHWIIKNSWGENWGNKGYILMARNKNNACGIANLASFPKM
As to the kind of experiment: in vitro inhibition of recombinant human cathepsin K. The class given is biochemical. As to conditions: recombinant enzyme, substrate Z-Phe-Arg-AMCA, pH 7.0, 30 min preincubation, fluorescence readout. The protocol: The in vitro assay is carried out as follows:
The assay is performed in 96 well microtiter plates at ambient temperature using recombinant human cathepsin K. Inhibition of cathepsin K is assayed at a constant enzyme (0.16 nM) and substrate concentration ([…] Z-Phe-Arg-AMCA—Peptide Institute Inc. Osaka, Japan) in 100 mM sodium phosphate buffer, pH 7.0, containing 2 mM dithiothreitol, 20 mM Tween 80 and 1 mM EDTA. Cathepsin K is preincubated with the inhibitors for 30 min, and the reaction is initiated by the addition of substrate. After 30 min incubation the reaction is stopped by the addition of E-64 (2 mM), and fluorescence intensity is read on a multi-well plate reader at excitation and emission wavelengths of 360 and 460 nm, respectively.

Experiment [2] addresses recombinant human cathepsin S (Homo sapiens, UniProt P25774). As to the kind of experiment: in vitro inhibition of recombinant human cathepsin S. Type of experiment: biochemical. Conditions: recombinant enzyme 0.04 nM, substrate Z-Leu-Leu-4-methylcoumaryl-7-amide, pH 7.0, fluorescence readout. The method, then: The in vitro assay is carried out in clear, flat-bottomed, 96-well microtiter plates (Greiner GmbH, Germany) at ambient temperature using recombinant human cathepsin S. Inhibition of human cathepsin S is assayed at a constant enzyme and various substrate concentrations (substrate is Z-Leu-Leu-4-methylcoumaryl-7-amide (Bachem (Switzerland)) in 100 parts 0.2M sodium phosphate, pH 7.0, containing 2 mM EDTA, 2 parts 1% Triton X-100, 10 parts 20 mM dithiothreitol (DTT) and 58 parts distilled water. The assay is started by adding the enzyme solution (13 times higher concentration of final concentration of recombinant human Cathepsin S) to the reaction mixture containing various concentrations of the corresponding substrate and the compound. Substrate concentrations between 3.4 and 17 μM are used. The recombinant human Cathepsin S is used at a final concentration of 0.04 nM. Test compounds are used at concentrations between 0.4 and 2 times the determined IC50 of the compound at the enzyme. The relative fluorescence is continuously measured for 30 minutes and the initial velocity is obtained from each progress curve. […]

As usually defined, the IC50 is the concentration needed to halve the response being measured.

Sequence of recombinant human cathepsin S (P25774 115-331): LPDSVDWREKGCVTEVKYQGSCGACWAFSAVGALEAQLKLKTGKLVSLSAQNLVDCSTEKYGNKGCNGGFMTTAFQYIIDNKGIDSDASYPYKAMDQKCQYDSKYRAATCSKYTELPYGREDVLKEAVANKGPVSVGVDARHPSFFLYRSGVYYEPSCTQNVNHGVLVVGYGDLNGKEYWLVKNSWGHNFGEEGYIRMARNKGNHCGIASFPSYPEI

Take `CC(C)(C)Cn1c(CN2C(=O)CC3(CCNCC3)C2=O)cc2cnc(C#N)nc21` [Example 3-0, 7-(2,2-Dimethyl-propyl)-6-(1,3-dioxo-2,8-diaza-spiro[4.5]dec-2-ylmethyl)-7H-pyrrolo[2,3-d]pyrimidine-2-carbonitrile]: the IC50 in experiment [1] was roughly 0.16 nM. As for `CC(C)(C)CCn1c(CN2CCC3(CCN(S(C)(=O)=O)CC3)C2)cc2cnc(C#N)nc21` [Example 4-3], the figures for the IC50 in experiment [1] and in experiment [2] were 8 nM and 6 nM, respectively. For `CC(=O)N1CCC2(CC1)C(=O)N(Cc1cc3cnc(C#N)nc3n1CCC1CCCCC1)c1ccccc12` [Example 4-8], the IC50 in experiment [2] is roughly 9 nM. Turning to `CC(=O)N1CCC2(CC1)C(=O)N(Cc1cc3cnc(C#N)nc3n1CCC(C)(C)C)c1ccccc12` [Example 4-9], the IC50 came out at 16 nM in experiment [1] and 10 nM in experiment [2].

Source of the values: patent US7531546B2, “Spiro-substituted pyrrolo[2,3-D]pyrimidines as cathepsin inhibitors” (Novartis AG, priority 2003, dated 2009).
